In patent publication US8722338B2, “Modulation of ABCG2-mediated urate transport to treat hyperuricemia and gout” (The Johns Hopkins University, priority 2009, dated 2014):
Entries after “also recorded” stand apart in the source; their conditions may differ.

How the values were obtained:
human ABCG2 = human ABCG2 (Homo sapiens, UniProt Q9UNQ0); conditions: 5 μM FTC; oocytes injected with ABCG2 WT mRNA; C-14 urate
Experimental: Oocytes were removed from female pigmented Xenopus laevis (Xenopus 1 Inc.) and de-folliculated using collagenase A (Roche) in Ca^2+-free OR-2 ringer solution. Stage V-VI oocytes were selected and injected (Nanoinject II, Drummond Scientific) with 50 nL of either mRNA or H2O (as a control). All experiments were performed on the fourth day after injection. Oocytes after injection were cultured in a modified L-15 media (OR-3) and kept at 15-20° C. mRNA was prepared using the SP6 mMessage mMachine (Ambion Inc.) according to the manufactures protocol.
Radiolabeled C-14 uric acid (American Radio-labeled Chemicals) was dissolved in a stock solution of 2 mM NaOH with a final urate concentration of 2 mM (either 2 mM hot-radio labeled urate or 1 mM hot and 1 mM cold urate). For oocyte transport experiments, the radio labeled C-14 urate was included at various concentrations in ND96 ringers solution (in mM: 96 NaCl, 2 KCl, 2 MgCl2, 5 Hepes, 1.8 CaCl2, pH 7.5, and 5 mM glucose for overnight incubation experiments).
For accumulation studies, oocytes were incubated either for 1 or 2 h at room temperature in 50 μM C-14 urate or overnight in 500 μM C-14 urate at 15° C. After incubation the oocytes were washed in ice-cold ND96 solution 3-5 times to remove any superficial, residual C-14 urate from the oocytes. Oocytes were then pooled for scintillation counting. […]

endogenous ABCG2 = biological target: T1, endogenous ABCG2 (Sus scrofa, UniProt Q8MIB3); assay: Urate accumulation in native LLC-PK1 renal proximal tubule cells; assay type: cell-based, porcine; conditions: 5 μM FTC; 120 min; polarized LLC-PK1 cells; 500 μM cold urate and 25 μM hot urate
T1 construct: endogenous in cells; host or cells: LLC-PK1 porcine renal epithelial cells
T1 sequence (Q8MIB3 1-656): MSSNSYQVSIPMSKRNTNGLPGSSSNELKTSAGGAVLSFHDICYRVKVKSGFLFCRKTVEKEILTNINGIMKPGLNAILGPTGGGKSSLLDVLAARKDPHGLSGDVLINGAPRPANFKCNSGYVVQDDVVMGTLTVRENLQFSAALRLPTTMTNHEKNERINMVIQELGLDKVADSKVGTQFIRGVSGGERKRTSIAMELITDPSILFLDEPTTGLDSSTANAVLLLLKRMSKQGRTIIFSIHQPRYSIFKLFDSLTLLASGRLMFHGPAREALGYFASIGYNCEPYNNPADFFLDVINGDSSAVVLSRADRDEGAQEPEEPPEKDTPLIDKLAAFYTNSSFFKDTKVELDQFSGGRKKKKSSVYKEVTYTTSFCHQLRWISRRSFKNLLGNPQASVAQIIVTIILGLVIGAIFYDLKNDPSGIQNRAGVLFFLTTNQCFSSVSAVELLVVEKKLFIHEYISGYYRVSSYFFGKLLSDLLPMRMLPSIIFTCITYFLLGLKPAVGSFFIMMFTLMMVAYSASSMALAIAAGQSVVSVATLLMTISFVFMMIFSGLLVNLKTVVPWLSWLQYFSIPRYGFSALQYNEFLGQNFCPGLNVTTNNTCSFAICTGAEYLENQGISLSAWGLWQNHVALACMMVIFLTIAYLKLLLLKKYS
Experimental: LLC-PK1 porcine renal epithelial cells were cultured in Dulbecco's Modified Eagle medium (DMEM) supplemented with 10% FBS. LLC-PK1 cells were seeded at a high density into a 6-well plate and accumulation experiments were performed after the cells polarized. The cells were incubated in DMEM containing 500 μM cold urate and 25 μM hot urate with or without 5 μM FTC (US Biologicals); the incubation lasted 120 min. The cells were then washed four times with ice-cold DMEM and lysed with 500 μL of 1M NaOH. The lysate was collected and placed in a scintillation tubule along with 5 mL scintillation fluid and counted.

Sequence of human ABCG2 (Q9UNQ0 whole entry): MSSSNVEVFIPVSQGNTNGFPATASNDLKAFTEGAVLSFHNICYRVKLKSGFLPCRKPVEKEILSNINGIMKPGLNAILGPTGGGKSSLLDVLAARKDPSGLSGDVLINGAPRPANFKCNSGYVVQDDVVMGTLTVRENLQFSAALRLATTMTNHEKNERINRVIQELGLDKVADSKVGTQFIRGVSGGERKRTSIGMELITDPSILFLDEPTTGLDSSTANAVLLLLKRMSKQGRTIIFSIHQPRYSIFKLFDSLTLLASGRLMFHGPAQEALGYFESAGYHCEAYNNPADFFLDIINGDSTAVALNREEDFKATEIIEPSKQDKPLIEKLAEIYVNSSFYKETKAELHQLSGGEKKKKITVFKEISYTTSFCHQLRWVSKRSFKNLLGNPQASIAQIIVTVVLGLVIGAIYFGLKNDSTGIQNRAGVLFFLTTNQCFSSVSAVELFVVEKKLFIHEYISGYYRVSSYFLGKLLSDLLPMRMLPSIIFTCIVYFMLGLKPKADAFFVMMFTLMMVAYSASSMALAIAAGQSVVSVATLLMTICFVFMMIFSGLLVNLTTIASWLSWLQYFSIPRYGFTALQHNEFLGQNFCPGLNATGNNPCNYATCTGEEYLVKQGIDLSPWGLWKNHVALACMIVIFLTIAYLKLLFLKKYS

## COc1ccc2c3c([nH]c2c1)[C@H](C=C(C)C)N1C(=O)[C@@H]2CCCN2C(=O)[C@@H]1C3 [FTC, fumitremorgin C]
Human ABCG2
  reduced urate accumulation in ABCG2-expressing oocytes in the presence of inhibitor: absent
Endogenous ABCG2
  urate export / intracellular urate accumulation compared with non-treated control cells: inhibits urate export; also recorded: significantly higher intracellular urate accumulation
